{
  "source": "patent US12630803B2",
  "about": "“Method of increasing proliferation of pancreatic beta cells, treatment method, and composition” (ICAHN SCHOOL OF MEDICINE AT MOUNT SINAI, priority 2018, dated 2026)",
  "key": {"[1]": {"system": "human beta cells", "assay": "Ki67-insulin immunolabeling of dispersed human islet cells (beta cell proliferation)", "conditions": "for actual Ki67% values: DYRK1A inhibitor alone, dispersed human islets, 96 hours, FIG. 1F; for synergy of DYRK1A inhibitor with GLP1 on beta cell proliferation: in combination with GLP1, FIGS. 1F, 4; for ability to replace or mimic GLP1 in harmine-GLP1 proliferation: agent administered together with harmine, FIGS. 5A-5C, 5E, 5F; for proliferation, agent alone at low dose: harmine 1 μM alone or GLP1 alone, FIG. 3E; for synergy of GLP1R agonist with harmine on beta cell proliferation: in combination with harmine, FIG. 1G", "excerpt": "(§3) Human Islets: Human islets from 81 normal donors were obtained through the NIH-supported Integrated Islet Distribution Program (IIDP), the Alberta Diabetes Institute Islet Core at the University of Alberta, and the Clinical Islet Laboratory, University of Alberta Hospital. Islets were harvested from pancreata from deceased organ donors without any identifying information with informed consent and IRB approval at the islet-isolating centers. […] In addition, islets were obtained from 11 donors with Type 2 diabetes. […] Three were known to be on diabetes medications (metformin n=3, DPP4 inhibitor n=1). […] Whole islets were pelleted by centrifugation at 200×G and washed twice in PBS. Islets were then incubated in Accutase for 15-17 minutes at 37° C. and completely dispersed to single cells by pipette trituration. Single islet cells were pelleted by centrifugation at 700×G and re-suspended in islet culture medium.\n(§4) Compound Treatments: Dispersed islets were plated on poly-D-lysine-laminin-coated glass chamber slides or coverslips. Cells derived from 20-30 IEQ dispersed cells were seeded per well, and allowed to recover for 24 hr prior to compound treatment. Cells were treated for 96 hours prior to Ki67 staining, BrdU staining or TUNEL labeling.\nAntibodies were diluted in blocking buffer (5% normal goat serum (NGS), 1% bovine serum albumin (BSA), 0.5% Triton, in PBS). […] BrdU (Cell Proliferation Labelling Reagent. Amersham GE Healthcare. GE: RPN201) was added to each treatment at a 1:100 dilution, 18 hours prior to fixation. Antigen retrieval for BrdU immunostaining was performed following fixation using 1N HCl at 37° C. for 30 minutes before primary antibody incubation."}, "[2]": {"system": "beta (INS+) cells", "assay": "BrdU labeling in beta (INS+) cells of dispersed human islets", "type": "cell-based", "text": "(§1) Primary and secondary antisera used are listed below."}, "[3]": {"system": "alpha (GCG+) cells", "assay": "BrdU labeling in alpha (GCG+) cells of dispersed human islets", "type": "cell-based", "text": "as §1"}, "[4]": {"system": "delta (SST+) cells", "assay": "BrdU labeling in delta (SST+) cells of dispersed human islets", "type": "cell-based", "text": "as §1"}, "[5]": {"system": "ductal (CK19+) cells", "assay": "BrdU labeling in ductal (CK19+) cells of dispersed human islets", "type": "cell-based", "text": "as §1"}, "[6]": {"system": "human beta cells", "assay": "TUNEL assay of beta cell death", "type": "cell-based", "conditions": "96 hours, FIGS. 10C-10D", "text": "as §1"}, "[7]": {"system": "markers of beta cell differentiation", "assay": "qPCR of differentiation markers in islets from donors with T2D", "type": "cell-based, human", "conditions": "FIG. 9A", "text": "Purity ranged from 55% to 85%.\n(§2) Primers are shown below in Tables 5 and 6."}, "[8]": {"system": "PDX1, MAFA, and NKX6.1", "conditions": "normal donors, FIG. 8B", "description": "Antibodies were diluted in blocking buffer (5% normal goat serum (NGS), 1% bovine serum albumin (BSA), 0.5% Triton, in PBS). Primary and secondary antisera used are listed below. BrdU (Cell Proliferation Labelling Reagent. Amersham GE Healthcare. GE: RPN201) was added to each treatment at a 1:100 dilution, 18 hours prior to fixation. Antigen retrieval for BrdU immunostaining was performed following fixation using 1N HCl at 37° C. for 30 minutes before primary antibody incubation. Cells were incubated with primary and secondary antibodies according to Table 4 below before counterstained with DAPI."}, "[9]": {"system": "T2D beta cells", "conditions": "FIGS. 9D-9E", "excerpt": "as §3, §4\nAntibodies were diluted in blocking buffer (5% normal goat serum (NGS), 1% bovine serum albumin (BSA), 0.5% Triton, in PBS). […]"}, "[10]": {"system": "cell cycle molecules", "assay": "qPCR of cell cycle activators and inhibitors in human islets", "type": "cell-based", "conditions": "GLP1 added to harmine, vs harmine alone, 72 hours", "text": "as §2"}, "[11]": {"conditions": "GLP1 added to harmine, vs harmine alone"}},
  "note": "Entries after “also recorded” stand apart in the source; their conditions may differ. Ends that are not written are not given here.",
  "data": [
    {"molecule": "Nc1ncnc2c1c(I)cn2[C@@H]1O[C@H](CO)[C@@H](O)[C@H]1O", "note": "[5-IT, 5-iodotubercidin]", "values": [
      {"measurement": "actual Ki67% values", "setting": "[1]", "result": 2.6, "unit": "%"},
      {"measurement": "synergy of DYRK1A inhibitor with GLP1 on beta cell proliferation", "setting": "[1]", "result": "synergistic"}
    ]},
    {"molecule": "CC(C)Oc1ccc(F)c(-c2cnc(N)c(C(=O)Nc3cnccc3N3CCC[C@@H](C(=O)O)C3)n2)c1", "note": "[GNF4877]", "values": [
      {"measurement": "actual Ki67% values", "setting": "[1]", "result": 2.9, "unit": "%"},
      {"measurement": "synergy of DYRK1A inhibitor with GLP1 on beta cell proliferation", "setting": "[1]", "result": "synergistic"}
    ]},
    {"molecule": "O=S(=O)(NCCNC/C=C/c1ccc(Br)cc1)c1cccc2cnccc12", "note": "[H89]", "values": [
      {"measurement": "effect on human beta cell proliferation, agent administered alone", "setting": "[1]", "result": "no effect on its own"}
    ]},
    {"molecule": "CC(C)Cn1c(=O)n(C)c(=O)c2[nH]cnc21", "note": "[IBMX, 3-Isobutyl-1-methylxanthine]", "values": [
      {"measurement": "ability to replace or mimic GLP1 in harmine-GLP1 proliferation", "setting": "[1]", "result": "mimicked; also recorded: can replace GLP1"},
      {"measurement": "effect on human beta cell proliferation, agent administered alone", "setting": "[1]", "result": "no effect on proliferation"}
    ]},
    {"molecule": "CCN1/C(=C/C(C)=O)Sc2ccc(O)cc21", "note": "[INDY]", "values": [
      {"measurement": "actual Ki67% values", "setting": "[1]", "result": 1.7, "unit": "%"},
      {"measurement": "synergy of DYRK1A inhibitor with GLP1 on beta cell proliferation", "setting": "[1]", "result": "synergistic"}
    ]},
    {"molecule": "CCCC(=O)Nc1ncnc2c1ncn2[C@@H]1O[C@@H]2COP(=O)(O)O[C@H]2[C@H]1OC(=O)CCC", "note": "[di-butyryl cAMP, dibutyryl cAMP]", "values": [
      {"measurement": "ability to replace or mimic GLP1 in harmine-GLP1 proliferation", "setting": "[1]", "result": "can replace GLP1"},
      {"measurement": "ability to replace or mimic GLP1 in harmine-GLP1 proliferation", "setting": "[1]; listed as dibutyryl-cyclicAMP", "result": "mimicked"},
      {"measurement": "effect on human beta cell proliferation, agent administered alone", "setting": "[1]", "result": "no effect on proliferation"}
    ]},
    {"molecule": "OCCN(CCO)c1nc(N2CCCCC2)c2nc(N(CCO)CCO)nc(N3CCCCC3)c2n1", "note": "[dipyridamole]", "values": [
      {"measurement": "ability to replace or mimic GLP1 in harmine-GLP1 proliferation", "setting": "[1]", "result": "mimicked; also recorded: can replace GLP1"},
      {"measurement": "effect on human beta cell proliferation, agent administered alone", "setting": "[1]", "result": "no effect on proliferation"}
    ]},
    {"molecule": "COc1ccc2c(c1)[nH]c1c(C)nccc12", "note": "[harmine]", "values": [
      {"measurement": "proliferation (BrdU) in beta cells", "setting": "[2]; harmine alone", "result": "activates proliferation"},
      {"measurement": "proliferation (BrdU) in alpha cells", "setting": "[3]; harmine alone", "result": "activates proliferation"},
      {"measurement": "proliferation (BrdU) in delta cells", "setting": "[4]; harmine alone", "result": "activates proliferation"},
      {"measurement": "proliferation (BrdU) in ductal cells", "setting": "[5]; harmine alone", "result": "activates proliferation"},
      {"measurement": "markers of beta cell death (TUNEL)", "setting": "[6]", "result": "Neither harmine nor the harmine-GLP1 combination treatment induced markers of beta cell death"},
      {"measurement": "expression of differentiation markers (qPCR)", "setting": "[7]", "result": "did not have adverse effects on differentiation"},
      {"measurement": "expression of differentiation markers (qPCR)", "setting": "[7]; listed as Harmine", "result": "increased the expression of PDX1, MAFB, NKX6.1, GLUT2, GLP1R, and PCSK1"},
      {"measurement": "PDX1, MAFA and NKX6.1 proteins in beta cells", "setting": "[8]", "result": "increases in beta cell nuclei"},
      {"measurement": "beta cell proliferation (Ki67 immunolabeling)", "setting": "[9]", "result": "activated beta cell proliferation in T2D beta cells"},
      {"measurement": "actual Ki67% values", "setting": "[1]", "result": 2.1, "unit": "%"},
      {"measurement": "proliferation, agent alone at low dose", "setting": "[1]", "result": "little or no proliferation"},
      {"measurement": "human beta cell proliferation (Ki67 in insulin-positive cells)", "setting": "[1]; harmine alone", "result": "~2", "unit": "%"},
      {"measurement": "actual Ki67% value", "setting": "[1]; harmine alone, experiments of FIG. 1G", "result": 2.2, "unit": "%"}
    ]},
    {"molecule": "O=C1NC(Nc2ccccc2)=N/C1=C\\c1ccc2c(c1)OCO2", "note": "[leucettine]", "values": [
      {"measurement": "actual Ki67% values", "setting": "[1]", "result": 2.8, "unit": "%"},
      {"measurement": "synergy of DYRK1A inhibitor with GLP1 on beta cell proliferation", "setting": "[1]", "result": "synergistic"}
    ]},
    {"molecule": "GLP1(7-36)amide (HAEGTFTSDVSSYLEGQAAKEFIAWLVKGR-NH2; UniProt P01275 98-127, looked up)", "values": [
      {"measurement": "proliferation (BrdU) in beta cells", "setting": "[2]; [11]", "result": "further increased proliferation; also recorded: accentuates"},
      {"measurement": "proliferation (BrdU) in alpha cells", "setting": "[3]; [11]", "result": "no additional effect"},
      {"measurement": "proliferation (BrdU) in delta cells", "setting": "[4]; [11]", "result": "no additional effect"},
      {"measurement": "proliferation (BrdU) in ductal cells", "setting": "[5]; [11]", "result": "further increased proliferation; also recorded: accentuates"},
      {"measurement": "change to cell cycle activators or inhibitors (qPCR)", "setting": "[10]", "result": "no incremental change to cell cycle activators or inhibitors"},
      {"measurement": "effect on human beta cell proliferation, agent administered alone", "setting": "[1]", "result": "negligible effects"},
      {"measurement": "proliferation, agent alone at low dose", "setting": "[1]", "result": "little or no proliferation"},
      {"measurement": "synergy of GLP1R agonist with harmine on beta cell proliferation", "setting": "[1]", "result": "synergy was also apparent"}
    ]},
    {"molecule": "exendin-4: GLP1R agonist (11940, Cayman)", "values": [
      {"measurement": "synergy of GLP1R agonist with harmine on beta cell proliferation", "setting": "[1]", "result": "synergy was also apparent"}
    ]},
    {"molecule": "lixisenatide: GLP1R agonist", "values": [
      {"measurement": "synergy of GLP1R agonist with harmine on beta cell proliferation", "setting": "[1]", "result": "synergy was also apparent"}
    ]}
  ]
}
